Patent US20050192217A1, “Utilization of lipopeptides or lipoproteins in wound treatment and infection prophylaxis” (priority 1998, published 2005)
Where “and” joins values, the source holds several entries; their conditions need not be identical. Equal values may be shown once. Marks after values point to notes of the source that are not given here. Ends that are not written are not given here. * marks the point of attachment. X1 = 2,3‑bispalmitoyloxy‑(2S)‑propyl, CCCCCCCCCCCCCCCC(=O)OC[C@@H](C*)OC(=O)CCCCCCCCCCCCCCC; Propyl(2R-PamO,3-PamO) = CCCCCCCCCCCCCCCC(=O)OC[C@H](C*)OC(=O)CCCCCCCCCCCCCCC

Experiments:
peritoneal leukocytes = test: Leukocyte inflow into the peritoneal cavity after intraperitoneal injection; assay type: in vivo, NMRI mice; details: for PEC: 72 hours
Procedure: The model of inflow of granulocytes and macrophages into the peritoneal cavity of the mouse served as an example of the effectiveness of synthetic lipopeptides or liposomes into which such lipopeptides were incorporated. NMRI-outbred mice were used as experimental animals in order to exclude genetic peculiarities.
At time 0, the following preparations are injected in a sterile manner and in physiological sodium chloride solution into the peritoncal cavity of the experimental animals. Groups of 6 mice were killed after different times, the peritoneal cavity was washed with 1.2 ml of sterile sodium chloride solution and the number of leukocytes and the leukocyte composition was determined in this cell suspension.
Here, as above, groups of 5 NMRI mice were treated with different amounts of R-MALP-2=S-[2,3-Bispalmitoyloxy-(2R)-propyl]cysteinyl-GNNDESNISFKEK (SEQ ID NO:10) or S-MALP-2=S-[2,3-Bispalmitoyloxy-(2S)-propyl]cysteinyl-GNNDESNISFKEK (SEQ ID NO:8)applied intraperitoneally, and after 3 days the total number as well as the composition of the peritoneal leukocytes were determined.

skin of NMRI mice = test: Intracutaneous application in the skin: leukocyte accumulation and new tissue formation; assay type: in vivo; details: 2 μg intracutaneously
Procedure: The following experiment was carried out in order to show the effect of MALP-2 upon intracutaneous application.

wounds [1] = test: Wound-healing experiment; assay type: in vivo, (diabetic) C57BLKS/J-m+/+-Lepr^db mice; details: 5 μg in 100 μL into the wound each day up to day 4, diabetic mice
Procedure: A wound-healing experiment was carried out as follows. On day 1, (diabetic) C57BLKS/J-m+/+-Lepr^db mice were shaved on the back. On day 0, the animals were anesthetized with ether and the backs were disinfected with Braunoderm. After that, circular regions (1.3 cm diameter) were cut from the skin of the back of each mouse. The edges of the wound were treated with benzoin tincture; then 100 μL of the MALP-2 preparation or of the vehicles were introduced into each wound (10 mice for each treatment group). The wounds were covered with transparent patches of Tegaderm. Each day, up to day 4, 100 μL of the preparation (content 5 μg of MALP-2) or vehicle preparation was injected into the wound bed through the Tegaderm patches or placed in the wound when the bandage was changed. The mice were kept individually in separate cages. In order to avoid infections, baytril (Bayer) was introduced in the drinking water (50 mg/L of enrofloxacin). The bandages were changed once a week under ether anesthesia, and the wound edges were recorded on microscope slides. The areas shown were determined with a standard CCD camera using Scionlmage software. The wounds were checked visually for infections; liquid samples from obviously infected wounds were tested on blood agar plates. Mice with infected wounds were removed from further analyses.

abdominal sepsis = test: Colon ascendens stent peritonitis model, survival after pretreatment; assay type: in vivo, C57BL/6 mice; details: 2 μg i.p. two days before the surgical intervention
Procedure: “Colon ascendens stent peritonitis” is a new model for abdominal sepsis, which may follow surgical intervention [Zantl et al., Infekt. Immun., 66:2300-2309 (1998)]. The following experiments were carried out in order to evaluate the ability of MALP-2 to increase the survival rate in this model. Groups of 12 to 18 C57BL/6 mice were injected intraperitoneally with 2 μg of S-MALP-2 in 200 μL of physiological sodium chloride solution or with the same volume of physiological sodium chloride solution either 2 or 4 days before surgical intervention. The surgical intervention was carried out under ether anesthesia. The abdomen was disinfected with 70% ethanol and then opened by section in the middle line (1 cm). A venous catheter (16 gauge) was inserted into the lumen of the […] colon and secured with two stitches using Ethilon thread (7/0). Then the inner needle of the stent was removed, the catheter was shortened to a length of a few millimeters and a small drop of feces was pressed out from the catheter. The peritoneal cavity was rinsed with 0.5 Ml of sodium chloride solution before closing the abdomen. Among the mice with the control, sodium chloride solution (18 per group), none lived longer than 90 h. […]

skin sections = test: Infiltration of cells and proliferation by nucleic acids in skin sections after intracutaneous injection; assay type: in vivo, C57BLKS/J mice
Procedure: 1. Determination of infiltration of cells and proliferation by measurement of nucleic acids in skin sections after intracutaneous (ic) injection of various MALP-2 doses. On day 1, the back of C57BLKS/J mice was shaved and hair was removed with Veet. On day 0, the animals were anesthetized with metofane; various doses of MALP-2, dissolved in 30 percent 2-propanol, were injected in volumes of up to 10 μL onto the back (ic). Corresponding volumes of the vehicle without MALP-2 were injected onto the back of the same mice at another location. The animals were killed 10 days later, and punched skin sections (diameter 0.8 cm) were taken from the MALP-2 injection sites and from the control injection sites. The skin biopsies were defatted by extraction with methanol, methanol/chloroform (1+1) and chloroform for 15 minutes and were hydrolyzed in 10 N Hcl overnight at 110° C. The samples were dried, taken up in water and clarified by filtration through a sterile filter (0.2 μm); the nucleic acids were determined by measuring the absorption at 260 nm. […] At this dose, the nucleic acid content increased at the MALP-2 injection site by 97±43% in comparison to the corresponding control biopsy (4 animals per group).

wounds [2] = test: Cell colonization and proliferation (nucleic acids) in treated wounds; assay type: in vivo, C57BLKS/J-m+/+Lepr^db mice (diabetic); details: diabetic mice, after 10 days
Procedure: 2. Cell colonization and proliferation were measured in the skin section (0.8 cm diameter) of wounds which were treated with various amounts of MALP-2. For this experiment, (C57BLKS/J-m+/+Lepr^db mice (diabetic) were shaved on the back and hair was removed with Veet. The animals were anesthetized with metofane and their backs were disinfected with Braunol. Then circular skin segments (0.8 cm diameter) were taken from the back of each mouse. The wounds were covered with transparent hydrofilm (Hartmann, Germany); MALP-2 or other vehicles were injected into the wound bed through the film in a volume of 50 μL. After 10 days, the animals were killed; the thin layer of cells, which closes the wound, was sectioned ([…]). The punched samples were hydrolyzed and the nucleic acids determined as before. […] At this dose, 349±24 μg of nucleic acid per biopsy sample were found in the animals treated with MALP-2 while the value was 142±22 μg in the comparison samples (4 animals per group; p<0.0001).

## S-[2,3-Bispalmitoyloxy-(2R)-propyl]cysteinyl-GNNDESNISFKEK (C(Propyl(2R-PamO,3-PamO))GNNDESNISFKEK) [R-MALP-2, reference compound]
Peritoneal leukocytes; 10 μg i.p., group mean φ of 5
  PEC: 8.64 ± 3 ×10^6
Peritoneal leukocytes; 10 μg i.p., individual animals A-E
  PEC: 11.1 ×10^6 and 4.05 ×10^6 and 11.4 ×10^6 and 7.65 ×10^6 and 9 ×10^6

## S-[2,3-Bispalmitoyloxy-(2S)-propyl]cysteinyl-GNNDESNISFKEK (C(X1)GNNDESNISFKEK) [S-MALP-2]
Peritoneal leukocytes; 1 μg i.p., group mean φ of 5
  PEC: 10.2 ± 2.2^a ×10^6
Peritoneal leukocytes; 1 μg i.p., individual animals A-E
  PEC: 9.1 ×10^6 and 10.8 ×10^6 and 9.35 ×10^6 and 13.7 ×10^6 and 7.9 ×10^6
Peritoneal leukocytes; 5 μg i.p., group mean φ of 5
  PEC: 14.5 ± 1.9^a,b ×10^6
Peritoneal leukocytes; 5 μg i.p., individual animals A-E
  PEC: 14.4 ×10^6 and 15.2 ×10^6 and 17.3 ×10^6 and 13.1 ×10^6 and 12.5 ×10^6
Peritoneal leukocytes; i.p., after 3 days, groups of 5 NMRI mice
  in vivo effect on peritoneal leukocytes, S-MALP-2 compared with R-MALP-2: clearly more effective
Skin of NMRI mice; after 3 days
  accumulation of leukocytes at the injection site: a clear accumulation of leukocytes is observed
Skin of NMRI mice; after 6 days
  formation of new tissue and vessels: new tissue and vessels are formed
Wounds [1]
  wound healing (wound area, FIG. 7): significant acceleration of wound healing
Abdominal sepsis
  animals surviving for 150 h or longer: 4 out of 12

## S-[2,3-bispalmitoyloxy-(2RS)-propyl]cysteinyl-GNNDESNISFKEK [MALP-2]
Peritoneal leukocytes; 9 μg i.p., after 72 hours, groups of 6 animals, mean
  Peritoneal cells: 11.2 ± 3.1^b ×10^6
Skin sections; 5 μg per injection site ic, 10 days, 4 animals per group
  increase of nucleic acid content at the injection site in comparison to the control biopsy: 97±43%
Skin sections; intracutaneous injection, skin biopsy 10 days later
  optimal dose per injection site: 5 µg
Wounds [2]; 5 μg per wound, 4 animals per group
  nucleic acid per biopsy sample: 349 ± 24 µg
Wounds [2]; injected into the wound bed
  optimal dose per wound: 5 µg
